Source: patent publication US9730937B2, “RAF kinase modulator compounds and methods of use thereof” (AMBIT BIOSCIENCES CORPORATION, priority 2008, dated 2017)
Structures can show the parent of a compound that is named as a salt. Where two headings read alike, the source gives them in different places.

Experiments:
wild type BRAF kinase = wild type BRAF kinase (Homo sapiens (Human), UniProt P15056); conditions: read-out: BRAF WT Kd, class symbols
RAF kinases = RAF kinases (Homo sapiens (Human), UniProt P04049); conditions: read-out: RAF1 Kd, class symbols
[1] = tested on: panel of 290 distinct kinases (321 in the larger panel), excluding mutant variants; conditions: kinase selectivity score, class symbols
mutant BRAF kinase = mutant BRAF kinase (Homo sapiens (Human), UniProt P15056, V600E); conditions: read-out: BRAF V600E Kd, class symbols
[2] = value marked * (larger kinase panel)

Chain of RAF kinases (P04049 whole entry): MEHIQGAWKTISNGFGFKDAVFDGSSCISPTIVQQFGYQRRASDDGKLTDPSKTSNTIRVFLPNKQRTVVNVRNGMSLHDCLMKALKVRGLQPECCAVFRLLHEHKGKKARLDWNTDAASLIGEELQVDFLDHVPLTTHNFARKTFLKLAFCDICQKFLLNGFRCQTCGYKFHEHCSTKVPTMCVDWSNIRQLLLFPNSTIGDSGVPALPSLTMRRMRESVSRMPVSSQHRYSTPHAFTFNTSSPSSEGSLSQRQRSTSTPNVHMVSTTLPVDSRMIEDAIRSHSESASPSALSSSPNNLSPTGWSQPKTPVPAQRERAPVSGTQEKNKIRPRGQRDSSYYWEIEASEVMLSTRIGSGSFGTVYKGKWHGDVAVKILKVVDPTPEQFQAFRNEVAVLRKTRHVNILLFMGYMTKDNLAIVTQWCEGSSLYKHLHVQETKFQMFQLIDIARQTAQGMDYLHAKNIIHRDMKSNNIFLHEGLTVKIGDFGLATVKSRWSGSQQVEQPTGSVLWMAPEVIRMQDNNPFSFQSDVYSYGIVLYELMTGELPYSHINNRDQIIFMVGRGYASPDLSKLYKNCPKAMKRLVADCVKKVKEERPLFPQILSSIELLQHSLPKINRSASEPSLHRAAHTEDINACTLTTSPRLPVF
Chain of wild type BRAF kinase (P15056 whole entry): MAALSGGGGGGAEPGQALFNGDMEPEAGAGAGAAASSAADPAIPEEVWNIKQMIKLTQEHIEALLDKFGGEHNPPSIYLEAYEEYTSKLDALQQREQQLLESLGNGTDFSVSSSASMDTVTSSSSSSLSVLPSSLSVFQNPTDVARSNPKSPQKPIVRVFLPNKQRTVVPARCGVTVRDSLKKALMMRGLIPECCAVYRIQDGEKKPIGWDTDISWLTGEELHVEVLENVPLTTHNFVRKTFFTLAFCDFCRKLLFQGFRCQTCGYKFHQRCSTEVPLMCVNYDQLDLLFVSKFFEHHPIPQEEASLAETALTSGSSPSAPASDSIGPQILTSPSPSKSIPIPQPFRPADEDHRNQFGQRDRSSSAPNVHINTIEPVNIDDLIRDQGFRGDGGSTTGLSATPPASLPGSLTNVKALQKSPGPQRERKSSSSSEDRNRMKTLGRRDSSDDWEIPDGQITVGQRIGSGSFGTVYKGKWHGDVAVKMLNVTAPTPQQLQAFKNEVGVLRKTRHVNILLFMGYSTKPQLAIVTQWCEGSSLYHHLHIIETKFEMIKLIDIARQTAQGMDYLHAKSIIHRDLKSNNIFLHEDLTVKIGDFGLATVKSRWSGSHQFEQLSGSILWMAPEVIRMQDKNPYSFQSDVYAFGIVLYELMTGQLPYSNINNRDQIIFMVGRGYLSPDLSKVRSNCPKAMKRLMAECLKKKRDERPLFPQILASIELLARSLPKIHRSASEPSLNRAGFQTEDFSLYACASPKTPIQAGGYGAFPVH
Chain of mutant BRAF kinase (P15056 whole entry V600E): as the sequence (P15056 whole entry) above, with V600E counted along it

Structure (SMILES) | Kd (wild type BRAF kinase) [nM] | Kd (RAF kinases) [nM] | S35 [1, 2] | Kd (mutant BRAF kinase) [nM] | S35 ([1]; 290 distinct kinases)
CCOC(=O)Cn1nc(C(C)(C)C)cc1NC(=O)Nc1cccc(Oc2ncnc3cc(OC)c(OC)cc23)c1 [Ex 166, ethyl 2-(3-tert-butyl-5-{3-[3-(6,7-dimethoxyquinazolin-4-yloxy)phenyl]ureido}-1H-pyrazol-1-yl)acetate] | > 1000 | > 1000 | C* (0.20 < C ≦ 0.40) | – | –
COc1cc2ncnc(Oc3cccc(NC(=O)Nc4cc(C(C)(C)C)on4)c3)c2cc1OC [Ex 1, 1-(5-tert-butylisoxazol-3-yl)-3-(3-(6,7-dimethoxyquinazolin-4-yloxy)phenyl)urea] | > 1000 | – | – | < 250 | C (0.20 < C ≦ 0.40)
COc1cc2ncnc(Oc3cccc(NC(=O)Nc4nccc(C(F)(F)F)n4)c3)c2cc1OC [Ex 143, 1-(3-(6,7-dimethoxyquinazolin-4-yloxy)phenyl)-3-(4-(trifluoromethyl)pyrimidin-2-yl)urea] | > 1000 | – | – | – | A (A ≦ 0.10)
CCOc1cc2ncnc(Sc3cccc(NC(=O)Nc4cc(C(C)(C)C)on4)c3)c2cc1OCC [Ex 51, 1-(5-tert-butylisoxazol-3-yl)-3-[3-(6,7-diethoxyquinazolin-4-ylthio)phenyl]urea] | > 1000 | > 1000 | – | – | C (0.20 < C ≦ 0.40)
COCCOc1cc(NC(=O)Nc2cccc(Oc3ncnc4cc(OC)c(OC)cc34)c2)cc(C(F)(F)F)c1 [Ex 129, 1-(3-(6,7-dimethoxyquinazolin-4-yloxy)phenyl)-3-(3-(2-methoxyethoxy)-5-(trifluoromethyl)phenyl)urea] | > 1000 | – | – | – | B (0.10 < B ≦ 0.20)
COc1cc2ncnc(Oc3cccc(NC(=O)Nc4cc(CN5CCOCC5)cc(C(F)(F)F)c4)c3)c2cc1OC [Ex 151, 1-(3-(6,7-dimethoxyquinazolin-4-yloxy)phenyl)-3-(3-(morpholinomethyl)-5-(trifluoromethyl)phenyl)urea] | > 1000 | – | C* (0.20 < C ≦ 0.40) | < 250 | –
COc1cc2ncnc(Oc3cccc(NC(=O)Nc4cc(C(=O)N5CCOCC5)cc(C(F)(F)F)c4)c3)c2cc1OC [Ex 149, 1-(3-(6,7-dimethoxyquinazolin-4-yloxy)phenyl)-3-(3-(morpholine-4-carbonyl)-5-(trifluoromethyl)phenyl)urea] | > 1000 | > 1000 | B* (0.10 < B ≦ 0.20) | – | –
COc1ccc2c(Sc3cccc(NC(=O)Nc4cc(C(C)(C)C)on4)c3)ncnc2c1 [Ex 48, 1-(5-tert-butylisoxazol-3-yl)-3-(3-(7-methoxyquinazolin-4-ylthio)phenyl)urea] | > 1000 | > 1000 | – | – | C (0.20 < C ≦ 0.40)
CC(C)(C)c1cc(NC(=O)Nc2cccc(Sc3ncnc4cc(F)c(F)cc34)c2)no1 [Ex 47, 1-(5-tert-butylisoxazol-3-yl)-3-(3-(6,7-difluoroquinazolin-4-ylthio)phenyl)urea] | > 1000 | > 1000 | – | – | A (A ≦ 0.10)
COc1cc2ncnc(Oc3cccc(NC(=O)Nc4cc(C5CCCC5)no4)c3)c2cc1OC [Ex 163, 1-(3-cyclopentylisoxazol-5-yl)-3-(3-(6,7-dimethoxyquinazolin-4-yloxy)phenyl)urea] | > 1000 | – | C* (0.20 < C ≦ 0.40) | – | –
COc1cc2ncnc(Oc3cc(NC(=O)Nc4cc(C(C)(C)C)on4)ccc3F)c2cc1OC [Ex 9, 1-(5-tert-butylisoxazol-3-yl)-3-(3-(6,7-dimethoxyquinazolin-4-yloxy)-4-fluorophenyl)urea] | > 1000 | – | – | < 250 | D (D > 0.40)
COc1ccc2ncnc(Sc3cccc(NC(=O)Nc4cc(C(C)(C)C)on4)c3)c2c1 [Ex 49, 1-(5-tert-butylisoxazol-3-yl)-3-(3-(6-methoxyquinazolin-4-ylthio)phenyl)urea] | > 1000 | – | – | – | C (0.20 < C ≦ 0.40)
COc1cc2ncnc(Sc3cccc(NC(=O)Nc4cc(C(C)(C)C)on4)c3)c2cc1OCCN1CCCCC1 [Ex 65, 1-(5-tert-butylisoxazol-3-yl)-3-(3-(7-methoxy-6-(2-(piperidin-1-yl)ethoxy)quinazolin-4-ylthio)phenyl)urea] | > 1000 | – | – | < 250 | C (0.20 < C ≦ 0.40)
COc1cc2ncnc(Sc3cccc(NC(=O)Nc4ccc(C(C)(C)C)cc4)c3)c2cc1OC [Ex 174, 1-(4-tert-butylphenyl)-3-(3-(6,7-dimethoxyquinazolin-4-ylthio)phenyl)urea] | > 1000 | – | – | – | C (0.20 < C ≦ 0.40)
COCCOc1ccc2ncnc(Oc3cccc(NC(=O)Nc4cc(C(C)(C)C)on4)c3)c2c1 [Ex 40, 1-(5-tert-butylisoxazol-3-yl)-3-(3-(6-(2-methoxyethoxy)quinazolin-4-yloxy)phenyl)urea] | > 1000 | – | – | < 250 | C (0.20 < C ≦ 0.40)
COc1cc2ncnc(Oc3cccc(NC(=O)Nc4cc(C5CCOCC5)no4)c3)c2cc1OC [Ex 123, 1-(3-(6,7-dimethoxyquinazolin-4-yloxy)phenyl)-3-(3-(tetrahydro-2H-pyran-4-yl)isoxazol-5-yl)urea] | > 1000 | – | – | – | B (0.10 < B ≦ 0.20)
COc1cc2c(Sc3cccc(NC(=O)Nc4cc(C(C)(C)C)on4)c3)ncnc2cc1OCCN1CCC(CO)CC1 [Ex 86, 1-(5-tert-butylisoxazol-3-yl)-3-(3-(7-(2-(4-(hydroxymethyl)piperidin-1-yl)ethoxy)-6-methoxyquinazolin-4-ylthio)phenyl)urea] | > 1000 | – | – | – | C (0.20 < C ≦ 0.40)
COc1cc2ncnc(Oc3cccc(NC(=O)Nc4cc(C(C)(C)C)nn4C)c3)c2cc1OC [Ex 158, 1-(3-tert-butyl-1-methyl-1H-pyrazol-5-yl)-3-(3-(6,7-dimethoxyquinazolin-4-yloxy)phenyl)urea] | > 1000 | – | C* (0.20 < C ≦ 0.40) | < 250 | –
CCOc1cc2ncnc(Oc3cccc(NC(=O)Nc4cc(C(C)(C)C)on4)c3)c2cc1OC [Ex 6, 1-(5-tert-butylisoxazol-3-yl)-3-[3-(7-ethoxy-6-methoxyquinazolin-4-yloxy)phenyl]urea hydrochloride] | > 1000 | – | – | < 250 | D (D > 0.40)
COCCOc1cc(NC(=O)Nc2cccc(Oc3ncnc4cc(OC)c(OC)cc34)c2)ccc1C(F)(F)F [Ex 147, 1-(3-(6,7-dimethoxyquinazolin-4-yloxy)phenyl)-3-(3-(2-methoxyethoxy)-4-(trifluoromethyl)phenyl)urea] | > 1000 | – | B* (0.10 < B ≦ 0.20) | – | –
COCCOc1ccc2ncnc(Sc3cccc(NC(=O)Nc4cc(C(C)(C)C)on4)c3)c2c1 [Ex 87, 1-(5-tert-butylisoxazol-3-yl)-3-(3-(6-(2-methoxyethoxy)quinazolin-4-ylthio)phenyl)urea] | > 1000 | – | – | – | C (0.20 < C ≦ 0.40)
COc1cc2c(Oc3cccc(NC(=O)Nc4cc(C(C)(C)C)on4)c3)ncnc2cc1OCCCN1CCN(CCO)CC1 [Ex 30, 1-(5-tert-butylisoxazol-3-yl)-3-(3-(7-(3-(4-(2-hydroxyethyl)piperazin-1-yl)propoxy)-6-methoxyquinazolin-4-yloxy)phenyl)urea] | < 250 | – | – | < 250 | D (D > 0.40)
CCOc1cc2c(Oc3cccc(NC(=O)Nc4cc(C(C)(C)C)on4)c3)ncnc2cc1OC [Ex 11, 1-(5-tert-butylisoxazol-3-yl)-3-(3-(6-ethoxy-7-methoxyquinazolin-4-yloxy)phenyl)urea] | > 1000 | – | – | < 250 | C (0.20 < C ≦ 0.40)
COc1cc(OC2CCOCC2)c2c(Oc3cccc(NC(=O)Nc4cc(C(C)(C)C)on4)c3)ncnc2c1 [Ex 94, 1-(5-tert-butylisoxazol-3-yl)-3-{3-[7-methoxy-5-(tetrahydro-2H-pyran-4-yloxy)quinazolin-4-yloxy]phenyl}urea] | > 1000 | – | – | – | C (0.20 < C ≦ 0.40)
COc1cc2ncnc(Oc3cccc(NC(=O)Nc4ccc(OC(F)(F)F)cc4)c3)c2cc1OC [Ex 177, 1-(3-(6,7-dimethoxyquinazolin-4-yloxy)phenyl)-3-(4-(trifluoromethoxy)phenyl)urea] | – | < 250 | – | < 250 | C (0.20 < C ≦ 0.40)
COc1cc2ncnc(Sc3cccc(NC(=O)Nc4cc(CN5CCOCC5)cc(C(F)(F)F)c4)c3)c2cc1OC [Ex 189, 1-(3-(6,7-dimethoxyquinazolin-4-ylthio)phenyl)-3-(3-(morpholinomethyl)-5-(trifluoromethyl)phenyl)urea] | > 1000 | – | C* (0.20 < C ≦ 0.40) | – | –
COc1cc2ncnc(Oc3cccc(NC(=O)Nc4cccc(C(C)C)c4)c3)c2cc1OC [Ex 144, 1-(3-(6,7-dimethoxyquinazolin-4-yloxy)phenyl)-3-(3-isopropylphenyl)urea] | – | < 250 | C* (0.20 < C ≦ 0.40) | < 250 | –
COc1cc2ncnc(Oc3cccc(NC(=O)Nc4cc(Cl)cc(C(F)(F)F)c4)c3)c2cc1OC [Ex 140, 1-(3-chloro-5-(trifluoromethyl)phenyl)-3-(3-(6,7-dimethoxyquinazolin-4-yloxy)phenyl)urea] | > 1000 | – | – | – | B (0.10 < B ≦ 0.20)
COc1cc2ncnc(Sc3cccc(NC(=O)Nc4ccc(C(F)(F)F)c(F)c4)c3)c2cc1OC [Ex 188, 1-(3-(6,7-dimethoxyquinazolin-4-ylthio)phenyl)-3-(3-fluoro-4-(trifluoromethyl)phenyl)urea] | > 1000 | – | B* (0.10 < B ≦ 0.20) | – | –
COc1cc2ncnc(Oc3cccc(NC(=O)Nc4cc(C(F)(F)F)ccc4Cl)c3)c2cc1OC [Ex 142, 1-(2-chloro-5-(trifluoromethyl)phenyl)-3-(3-(6,7-dimethoxyquinazolin-4-yloxy)phenyl)urea] | > 1000 | – | – | – | B (0.10 < B ≦ 0.20)
